Measured values reported in PubChem BioAssay AID435010 (Broad Institute, 2010).
Inconclusive results are not listed. Calls of active or inactive are those of the source. No rule for the calls is given here.

These compounds were tested against Protein RecA (Mycobacterium tuberculosis (strain ATCC 25618 / H37Rv)) (UniProt P9WHJ3) (assay: Inhibitors of Mycobacterium tuberculosis RecA intein splicing, fluorescence, dose retest (AID 435010)). Conditions: cell-free RecA-intein splicing.
Chain of Protein RecA (Mycobacterium tuberculosis (strain ATCC 25618 / H37Rv)) (P9WHJ3 whole entry, looked up): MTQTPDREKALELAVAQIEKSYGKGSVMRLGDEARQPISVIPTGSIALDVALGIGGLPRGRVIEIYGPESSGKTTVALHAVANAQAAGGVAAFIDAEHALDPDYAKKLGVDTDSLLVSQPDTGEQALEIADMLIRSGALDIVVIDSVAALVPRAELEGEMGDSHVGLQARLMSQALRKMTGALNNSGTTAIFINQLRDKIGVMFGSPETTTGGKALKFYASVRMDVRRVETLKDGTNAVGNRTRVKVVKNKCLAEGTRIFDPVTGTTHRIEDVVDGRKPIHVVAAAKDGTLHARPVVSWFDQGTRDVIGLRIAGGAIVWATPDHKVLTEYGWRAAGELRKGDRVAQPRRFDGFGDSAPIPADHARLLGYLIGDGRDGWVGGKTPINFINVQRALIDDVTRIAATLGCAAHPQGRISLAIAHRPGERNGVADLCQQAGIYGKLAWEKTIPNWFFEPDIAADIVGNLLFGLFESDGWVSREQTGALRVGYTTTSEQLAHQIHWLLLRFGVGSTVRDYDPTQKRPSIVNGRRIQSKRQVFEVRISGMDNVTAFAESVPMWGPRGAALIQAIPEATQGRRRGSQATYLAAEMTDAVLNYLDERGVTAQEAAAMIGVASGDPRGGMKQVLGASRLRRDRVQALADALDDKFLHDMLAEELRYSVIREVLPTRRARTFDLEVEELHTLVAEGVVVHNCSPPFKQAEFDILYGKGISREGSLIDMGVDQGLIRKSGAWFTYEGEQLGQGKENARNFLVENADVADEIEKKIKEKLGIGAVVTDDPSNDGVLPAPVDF

| Structure (SMILES) | EC50 |
| --- | --- |
| CC1=NN(Cc2ccccc2)C(=O)/C1=C\c1ccc(N(C)C)cc1 | > 38 µM (inactive) |
| O=C(CCCN1C(=O)/C(=C/c2ccccc2)SC1=S)Nc1ccc(O)cc1 | > 38 µM (inactive) |
| N[C@@H]1CCCC[C@H]1N.O=C(O)C(=O)O.[Pt] | 32.5 µM |
